Active and inactive are the calls of the source.
Columns and labels:
[1] = molecular target: Mu-type opioid receptor (Homo sapiens, UniProt P35372); type: functional, cell-based;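 note: U2OS cells with beta-arrestin recruitment to OPRM1 by beta-gal complementation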
[2] = molecular target: 5-hydroxytryptamine receptor 2A (Mus musculus, UniProt P35363); type: functional, cell-based;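 note: CHO-K1 cells with tagged receptor and beta-arrestin; agonist potency measured as compound-induced activation of the receptor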
[3] = molecular target: Large T antigen (Simian virus 40, UniProt P03070); type: functional, Betapolyomavirus macacae;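 note: Confirmatory-stage PubChem screen for compounds that inhibit SV40 T antigen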
Large T antigen, sequence (P03070 whole entry): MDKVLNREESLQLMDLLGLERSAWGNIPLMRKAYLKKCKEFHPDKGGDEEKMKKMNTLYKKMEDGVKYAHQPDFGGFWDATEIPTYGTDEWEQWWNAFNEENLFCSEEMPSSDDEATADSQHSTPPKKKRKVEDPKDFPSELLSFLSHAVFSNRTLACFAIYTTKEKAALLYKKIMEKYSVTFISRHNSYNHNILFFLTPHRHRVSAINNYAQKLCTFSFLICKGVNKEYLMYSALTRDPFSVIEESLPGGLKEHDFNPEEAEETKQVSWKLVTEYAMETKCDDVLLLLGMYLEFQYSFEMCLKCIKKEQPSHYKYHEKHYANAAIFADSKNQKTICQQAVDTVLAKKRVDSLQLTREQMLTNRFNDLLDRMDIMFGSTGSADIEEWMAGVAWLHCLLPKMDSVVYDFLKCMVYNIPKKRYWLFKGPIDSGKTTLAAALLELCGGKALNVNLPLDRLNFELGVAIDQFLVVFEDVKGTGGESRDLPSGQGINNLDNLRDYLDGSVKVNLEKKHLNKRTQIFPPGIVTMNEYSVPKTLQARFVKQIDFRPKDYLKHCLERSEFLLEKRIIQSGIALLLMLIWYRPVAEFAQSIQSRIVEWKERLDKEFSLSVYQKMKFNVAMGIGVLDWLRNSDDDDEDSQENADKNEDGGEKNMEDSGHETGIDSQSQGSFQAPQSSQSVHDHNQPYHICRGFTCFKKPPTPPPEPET

[4] = molecular target: T1, High affinity choline transporter 1 (Homo sapiens, UniProt Q9GZV3); assay: human choline transporter blockers, potency – cell-based, 5-point CRC, membrane potential dye, dose response (AID 504840); type: functional
T1 sequence (Q9GZV3 whole entry): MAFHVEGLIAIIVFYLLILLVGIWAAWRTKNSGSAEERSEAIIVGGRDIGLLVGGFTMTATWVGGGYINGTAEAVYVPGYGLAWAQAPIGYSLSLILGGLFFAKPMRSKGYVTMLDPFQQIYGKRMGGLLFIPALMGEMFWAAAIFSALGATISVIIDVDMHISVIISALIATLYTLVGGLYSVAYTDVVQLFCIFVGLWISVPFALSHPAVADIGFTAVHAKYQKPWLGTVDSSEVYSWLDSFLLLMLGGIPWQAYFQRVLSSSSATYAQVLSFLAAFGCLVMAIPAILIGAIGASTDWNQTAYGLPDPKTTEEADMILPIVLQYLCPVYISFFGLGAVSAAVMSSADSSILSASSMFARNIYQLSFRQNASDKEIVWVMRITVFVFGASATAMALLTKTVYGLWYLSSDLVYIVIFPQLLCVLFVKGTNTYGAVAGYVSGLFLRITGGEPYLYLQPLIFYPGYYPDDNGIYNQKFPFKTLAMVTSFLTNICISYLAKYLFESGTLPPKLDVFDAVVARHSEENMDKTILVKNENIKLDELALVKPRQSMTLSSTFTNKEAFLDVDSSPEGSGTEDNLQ

[5] = viability loss in HeLa cells – cytotoxicity control for MgcRacGAP inhibitor project, dose response (AID 624300); type: functional
[6] = molecular target: T2, Rac GTPase-activating protein 1 (Homo sapiens, UniProt Q9H0H5); assay: blockers of MgcRacGAP-driven Rac1 GTP hydrolysis – biochemical, ADP Hunter fluorescence, primary and confirmatory, confirmation (AID 624330); type: functional
T2 sequence (Q9H0H5 whole entry): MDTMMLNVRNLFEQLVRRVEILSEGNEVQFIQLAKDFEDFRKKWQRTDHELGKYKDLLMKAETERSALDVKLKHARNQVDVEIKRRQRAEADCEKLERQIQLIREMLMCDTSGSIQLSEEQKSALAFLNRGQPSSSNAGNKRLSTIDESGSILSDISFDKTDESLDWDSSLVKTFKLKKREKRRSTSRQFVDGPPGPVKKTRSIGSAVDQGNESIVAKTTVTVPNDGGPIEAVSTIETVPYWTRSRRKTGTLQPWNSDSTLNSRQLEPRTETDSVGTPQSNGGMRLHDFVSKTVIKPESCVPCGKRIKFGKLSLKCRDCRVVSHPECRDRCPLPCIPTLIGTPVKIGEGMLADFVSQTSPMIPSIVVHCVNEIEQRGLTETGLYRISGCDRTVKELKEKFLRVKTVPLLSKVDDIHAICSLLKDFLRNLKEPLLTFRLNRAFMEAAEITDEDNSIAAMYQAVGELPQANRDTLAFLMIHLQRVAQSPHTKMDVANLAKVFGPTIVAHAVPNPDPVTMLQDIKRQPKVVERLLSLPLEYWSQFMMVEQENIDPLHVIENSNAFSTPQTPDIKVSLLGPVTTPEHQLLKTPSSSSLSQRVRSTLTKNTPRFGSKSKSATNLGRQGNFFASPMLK

[7] = molecular target: Endoplasmic reticulum aminopeptidase 1 (Homo sapiens, UniProt Q9NZ08); assay: inhibition of human ERAP1 enzyme activity – biochemical, cherry-pick, set 2, plate reader, dose response (AID 743314)
Endoplasmic reticulum aminopeptidase 1, sequence (Q9NZ08 whole entry): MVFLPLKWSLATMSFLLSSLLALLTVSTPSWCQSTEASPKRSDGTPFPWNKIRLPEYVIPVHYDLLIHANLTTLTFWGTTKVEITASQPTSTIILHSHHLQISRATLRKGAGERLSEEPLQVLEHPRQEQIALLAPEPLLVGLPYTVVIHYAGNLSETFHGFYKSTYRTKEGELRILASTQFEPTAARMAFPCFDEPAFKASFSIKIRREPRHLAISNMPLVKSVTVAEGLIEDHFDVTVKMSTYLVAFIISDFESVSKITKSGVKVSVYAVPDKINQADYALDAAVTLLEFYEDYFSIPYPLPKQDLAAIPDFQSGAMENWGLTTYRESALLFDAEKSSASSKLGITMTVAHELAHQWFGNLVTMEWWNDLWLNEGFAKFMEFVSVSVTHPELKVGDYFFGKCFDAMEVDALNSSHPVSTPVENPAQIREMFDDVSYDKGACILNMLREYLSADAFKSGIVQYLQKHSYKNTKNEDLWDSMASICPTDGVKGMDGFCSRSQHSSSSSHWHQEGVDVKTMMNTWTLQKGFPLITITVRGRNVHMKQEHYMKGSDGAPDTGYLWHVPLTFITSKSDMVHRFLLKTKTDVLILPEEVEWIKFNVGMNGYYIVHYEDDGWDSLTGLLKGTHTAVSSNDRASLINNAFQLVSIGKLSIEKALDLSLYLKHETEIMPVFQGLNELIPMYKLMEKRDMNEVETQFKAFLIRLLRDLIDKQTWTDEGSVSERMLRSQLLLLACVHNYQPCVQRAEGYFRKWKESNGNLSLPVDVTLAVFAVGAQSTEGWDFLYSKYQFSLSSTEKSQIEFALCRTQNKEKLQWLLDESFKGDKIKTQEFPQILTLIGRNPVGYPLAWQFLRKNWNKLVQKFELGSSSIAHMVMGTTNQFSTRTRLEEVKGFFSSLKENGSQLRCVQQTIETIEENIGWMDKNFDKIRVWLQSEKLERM

[8] = Late stage assay provider results from the probe development effort to identify selective inhibitors of heat shock protein 90 (HSP90): Absorbance-based cell proliferation assay in SKBR3 cells.; type: functional; conditions: SK-BR-3
[9] = Late stage assay provider results from the probe development effort to identify selective inhibitors of heat shock protein 90 (HSP90): Absorbance-based cell proliferation assay in MCF7 cells.; type: functional
[10] = mouse fibroblast viability loss – cell-based, cherry-pick samples, set 2, cytotoxicity control for T. cruzi growth inhibitor project, dose response (AID 651817); type: functional; conditions: NIH3T3
[11] = A Cell-Based Confirmatory Screen for Compounds that Inhibit VEEV, TC-83 (8).; type: functional
[12] = molecular target: Paired box protein Pax-8 (Homo sapiens, UniProt Q06710); assay: PAX8 transcriptional activity inhibition in RMG-I – RMG-I cells, luciferase, cherry-pick, dose response (AID 687027); type: functional, cell-based;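 note: luciferase reporter driven by Pax8 target thyroperoxidase promoter measured by SteadyGlo luminescence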
Paired box protein Pax-8, sequence (Q06710 whole entry): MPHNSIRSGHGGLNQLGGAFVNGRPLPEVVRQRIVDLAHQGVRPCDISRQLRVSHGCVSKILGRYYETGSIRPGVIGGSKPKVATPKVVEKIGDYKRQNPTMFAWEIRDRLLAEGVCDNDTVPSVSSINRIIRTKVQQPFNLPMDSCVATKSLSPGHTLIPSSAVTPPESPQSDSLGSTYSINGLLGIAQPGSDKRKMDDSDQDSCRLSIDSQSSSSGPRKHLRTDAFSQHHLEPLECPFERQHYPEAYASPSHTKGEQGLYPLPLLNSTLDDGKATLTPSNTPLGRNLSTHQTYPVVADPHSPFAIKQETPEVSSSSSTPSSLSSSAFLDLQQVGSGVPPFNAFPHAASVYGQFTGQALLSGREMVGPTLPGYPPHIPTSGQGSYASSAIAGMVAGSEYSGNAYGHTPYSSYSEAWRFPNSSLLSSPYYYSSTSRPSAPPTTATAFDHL

[13] = OVCAR-3 cell viability loss – plate reader, dry powder samples, PAX8 inhibitor project, dose response (AID 743044); type: functional, cell-based
[14] = IGROV1 cell killing – plate reader, dry powder samples, PAX8 inhibitor project, dose response (AID 743043); type: functional, cell-based; conditions: IGROV-1
[15] = OVCAR8 cell viability loss – plate reader, dry powder samples, PAX8 project, dose response (AID 743197); type: functional, cell-based; conditions: OVCAR-8
[16] = HGIII-sPLA2 enzyme inhibition potency – biochemical, QFRET, IC50, dose response (AID 743457);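 note: green fluorescence rise as the enzyme cleaves BODIPY PC-A2 in liposomes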
[17] = molecular target: Cytochrome P450 2D6 (Homo sapiens, UniProt P10635);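 note: CYP2D6 member of a cytochrome P450 panel assay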
Cytochrome P450 2D6, sequence (P10635 whole entry): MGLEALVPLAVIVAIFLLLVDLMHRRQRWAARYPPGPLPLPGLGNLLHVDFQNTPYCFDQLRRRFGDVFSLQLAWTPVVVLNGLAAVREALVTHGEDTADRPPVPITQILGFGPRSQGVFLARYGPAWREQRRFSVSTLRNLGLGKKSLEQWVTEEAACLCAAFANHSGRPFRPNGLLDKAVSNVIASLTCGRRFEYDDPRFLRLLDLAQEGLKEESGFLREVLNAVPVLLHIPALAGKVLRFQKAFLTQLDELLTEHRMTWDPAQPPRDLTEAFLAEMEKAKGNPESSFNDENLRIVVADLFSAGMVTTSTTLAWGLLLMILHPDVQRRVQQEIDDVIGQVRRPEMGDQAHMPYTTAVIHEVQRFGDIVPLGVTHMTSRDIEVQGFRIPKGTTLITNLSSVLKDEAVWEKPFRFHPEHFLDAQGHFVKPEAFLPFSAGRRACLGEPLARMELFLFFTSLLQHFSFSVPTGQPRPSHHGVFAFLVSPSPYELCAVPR

[18] = molecular target: T3, Cytochrome P450 1A2 (Homo sapiens, UniProt P05177);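 note: PubChem cytochrome P450 panel assay, CYP1A2 panel member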
T3 sequence (P05177 whole entry): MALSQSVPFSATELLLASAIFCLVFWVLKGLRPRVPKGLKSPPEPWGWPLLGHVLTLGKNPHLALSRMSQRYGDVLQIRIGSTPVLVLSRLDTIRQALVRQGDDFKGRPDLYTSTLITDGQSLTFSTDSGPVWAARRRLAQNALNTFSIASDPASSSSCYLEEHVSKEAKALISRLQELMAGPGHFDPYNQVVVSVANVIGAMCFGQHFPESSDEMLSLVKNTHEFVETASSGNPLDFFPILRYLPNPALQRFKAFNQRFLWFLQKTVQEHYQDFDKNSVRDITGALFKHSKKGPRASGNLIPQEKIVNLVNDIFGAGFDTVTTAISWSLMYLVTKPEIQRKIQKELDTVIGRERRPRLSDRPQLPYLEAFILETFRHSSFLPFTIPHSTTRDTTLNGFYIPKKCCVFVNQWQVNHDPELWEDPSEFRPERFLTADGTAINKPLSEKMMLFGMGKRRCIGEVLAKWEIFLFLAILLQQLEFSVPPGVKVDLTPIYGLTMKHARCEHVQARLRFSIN

[19] = molecular target: Disintegrin and metalloproteinase domain-containing protein 17 (Homo sapiens, UniProt P78536); assay: exosite inhibitors of ADAM17, dose response, biochemical (AID 743260)
Disintegrin and metalloproteinase domain-containing protein 17, sequence (P78536 whole entry, the tested form may be a part): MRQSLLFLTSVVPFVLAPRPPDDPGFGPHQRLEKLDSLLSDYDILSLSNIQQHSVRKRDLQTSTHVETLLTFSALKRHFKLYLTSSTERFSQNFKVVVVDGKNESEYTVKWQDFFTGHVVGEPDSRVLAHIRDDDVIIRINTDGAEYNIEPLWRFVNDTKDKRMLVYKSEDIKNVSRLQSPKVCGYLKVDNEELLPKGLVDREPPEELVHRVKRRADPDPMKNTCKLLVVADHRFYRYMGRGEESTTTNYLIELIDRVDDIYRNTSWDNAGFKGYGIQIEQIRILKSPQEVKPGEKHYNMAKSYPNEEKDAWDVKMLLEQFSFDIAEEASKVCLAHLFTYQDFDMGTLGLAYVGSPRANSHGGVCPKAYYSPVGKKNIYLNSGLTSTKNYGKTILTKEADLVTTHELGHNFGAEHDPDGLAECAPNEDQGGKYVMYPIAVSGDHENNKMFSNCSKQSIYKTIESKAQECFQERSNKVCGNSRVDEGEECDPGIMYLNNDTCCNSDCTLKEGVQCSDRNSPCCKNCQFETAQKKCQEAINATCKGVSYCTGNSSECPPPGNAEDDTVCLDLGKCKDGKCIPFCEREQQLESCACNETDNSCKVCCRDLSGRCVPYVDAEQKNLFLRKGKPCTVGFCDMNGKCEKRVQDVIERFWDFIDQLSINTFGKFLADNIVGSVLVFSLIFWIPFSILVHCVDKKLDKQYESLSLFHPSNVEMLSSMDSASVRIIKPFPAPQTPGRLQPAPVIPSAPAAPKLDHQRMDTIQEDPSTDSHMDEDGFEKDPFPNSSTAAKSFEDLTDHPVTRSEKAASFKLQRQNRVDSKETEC

[20] = inhibition of ADAM10 peptide cleavage – biochemical, FRET peptide substrate, recombinant human ADAM10, selectivity assay for ADAM17 exosite inhibitor project, dose response (AID 743259);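 note: ADAM10 enzyme cleaving a FRET peptide substrate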
[21] = CMV-driven luciferase expression suppression in HEK293 – cell-based, luminescence, dry powder, counter-screen for Pax8 inhibitor project, dose response (AID 743020); type: functional
[22] = Trypanosoma cruzi growth suppression in host cells – NIH3T3 host cells, beta-gal luminescence, confirmation (AID 2044); type: functional, cell-based;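 note: intracellular parasites grown in NIH/3T3 mouse fibroblasts as host cells; luminescent beta-galactosidase reporter signal from transgenic T. cruzi replicating inside host cells; inhibitors lower the luminescence signal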
[23] = NIH3T3 cell viability loss – ATP luminescence, mouse fibroblasts, counter-screen, dose response (AID 2010); type: functional, cell-based;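 note: cells exposed to compound for about 90 hours before reading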
[24] = molecular target: DNA dC->dU-editing enzyme APOBEC-3A (Homo sapiens, UniProt P31941); assay: A3A deaminase inhibition for selectivity – biochemical, dose response (AID 504722); type: functional
DNA dC->dU-editing enzyme APOBEC-3A, sequence (P31941 whole entry): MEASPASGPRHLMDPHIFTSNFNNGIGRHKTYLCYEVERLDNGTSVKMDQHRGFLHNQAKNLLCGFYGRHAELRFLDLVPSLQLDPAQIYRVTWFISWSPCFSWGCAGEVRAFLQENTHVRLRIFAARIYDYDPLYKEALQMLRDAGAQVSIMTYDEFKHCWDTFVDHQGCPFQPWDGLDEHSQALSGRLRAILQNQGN

[25] = molecular target: Glucose-6-phosphate 1-dehydrogenase (Homo sapiens, UniProt P11413); assay: inhibition of Homo sapiens G6PD, dose series – biochemical, fluorescence, selectivity assay for P. falciparum G6PD inhibitor project, dose response (AID 504792); type: functional
Glucose-6-phosphate 1-dehydrogenase, sequence (P11413 whole entry): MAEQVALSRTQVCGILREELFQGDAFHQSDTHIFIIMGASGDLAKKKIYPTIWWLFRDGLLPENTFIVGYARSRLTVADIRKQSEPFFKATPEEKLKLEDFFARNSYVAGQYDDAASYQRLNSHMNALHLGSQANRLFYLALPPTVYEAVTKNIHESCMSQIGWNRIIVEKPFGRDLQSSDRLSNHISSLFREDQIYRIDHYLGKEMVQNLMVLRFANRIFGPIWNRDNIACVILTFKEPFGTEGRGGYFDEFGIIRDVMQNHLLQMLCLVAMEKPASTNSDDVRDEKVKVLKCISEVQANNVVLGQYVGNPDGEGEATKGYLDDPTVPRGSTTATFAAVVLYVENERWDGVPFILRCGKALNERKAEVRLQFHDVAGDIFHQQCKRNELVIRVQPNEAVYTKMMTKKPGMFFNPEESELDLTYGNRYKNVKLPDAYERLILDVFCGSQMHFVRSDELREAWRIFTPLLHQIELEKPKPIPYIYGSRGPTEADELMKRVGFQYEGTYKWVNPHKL

[26] = molecular target: DNA dC->dU-editing enzyme APOBEC-3G (Homo sapiens, UniProt Q9HC16); assay: Dose Response confirmation of small molecule APOBEC3G DNA Deaminase Inhibitors via a fluorescence-based single-stranded DNA deaminase assay. [Related pubchem assays (depositor defined):AID493012, AID493028]; type: functional
[27] = Fluorescence-based cell-based high throughput dose response assay for inhibitors of the interaction of nucleotide-binding oligomerization domain containing 2 (NOD2) and the receptor-interacting serine-threonine kinase 2 (RIPK2).; type: functional; conditions: Homo sapiens
[28] = molecular target: Beta Lactamase (Pseudomonas aeruginosa, UniProt Q932Y6); assay: BLA reporter interference, concentration series – BLA reporter cells, FRET fluorescence, artefact control for NOD2-RIPK2 interaction inhibitor project, dose response (AID 651552); type: functional, cell-based
Beta Lactamase, sequence (Q932Y6 whole entry): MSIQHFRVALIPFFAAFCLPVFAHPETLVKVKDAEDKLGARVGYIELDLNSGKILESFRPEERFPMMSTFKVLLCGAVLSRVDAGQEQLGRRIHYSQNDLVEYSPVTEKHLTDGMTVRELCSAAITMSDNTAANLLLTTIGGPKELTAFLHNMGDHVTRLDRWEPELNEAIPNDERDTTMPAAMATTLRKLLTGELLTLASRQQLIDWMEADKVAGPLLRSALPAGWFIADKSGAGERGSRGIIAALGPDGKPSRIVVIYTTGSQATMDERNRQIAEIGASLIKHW

[29] = activation of miR-122 Renilla sensor silencing – cell-based, Huh7 psiCHECK-miR122, Renilla luciferase, cherry-picked, dose response (AID 651956); type: functional;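 note: huh7 hepatoma cells stably carrying a psiCHECK-2 miR-122 sensor plasmid; renilla luciferase signal reporting endogenous miR-122 activity after 48 h compound exposure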
[30] = TNFa-induced NF-kB reporter signal decrease – HEK293 LMP1 reporter cells, dry powder, set 2, selectivity assay for EBV LMP1 NF-kB inhibitor project, dose response (AID 624369); type: functional
[31] = general mammalian cell viability loss – inhibitor set, cherry-pick, set 2, cytotoxicity control for miR-122 modulator project, dose response (AID 720697); type: functional, cell-based

Mu-type opioid receptor, sequence (P35372 whole entry): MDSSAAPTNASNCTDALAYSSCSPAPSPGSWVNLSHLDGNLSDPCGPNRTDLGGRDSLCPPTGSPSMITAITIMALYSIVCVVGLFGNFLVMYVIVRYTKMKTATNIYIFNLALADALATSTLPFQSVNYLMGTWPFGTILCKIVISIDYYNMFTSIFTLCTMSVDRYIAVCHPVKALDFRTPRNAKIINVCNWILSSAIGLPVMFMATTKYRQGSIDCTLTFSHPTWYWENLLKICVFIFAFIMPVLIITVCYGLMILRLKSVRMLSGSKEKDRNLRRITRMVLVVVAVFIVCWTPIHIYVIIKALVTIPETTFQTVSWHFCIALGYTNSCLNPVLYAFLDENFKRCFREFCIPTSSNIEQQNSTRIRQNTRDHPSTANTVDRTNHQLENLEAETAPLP

## O=C(CSc1ccc2ccccc2c1)NCCc1ccc(O)c(O)c1
[1]
  EC50: 92.5 µM (inactive)
[2]
  EC50: 2.67 µM (active)

## COc1cc(/C=C2/C(=O)ON=C2c2ccccc2)ccc1O
[3]
  IC50: 9.98 µM (active)
[4]
  IC50: 9.6 µM (active)
[5]
  CC50: 100 µM (active)
[6]
  IC50: 100 µM (active)

## COc1ccc2c3c([nH]c2c1)[C@H](CO)N(Cc1cc(F)ccc1F)CC31CN(C)C1
[7]
  AC50: 6.53 µM (active)

## COC(=O)CCCCOc1ccc2cc(Br)c(=O)oc2c1
[8]
  IC50: > 100 µM (inactive)
[9]
  IC50: > 100 µM (inactive)

## C[C@H]1CN([C@@H](C)CO)C(=O)c2cccc(NC(=O)NC3CCCCC3)c2O[C@H]1CN(C)S(=O)(=O)c1ccc(F)cc1
[10]
  AC50: 28.7 µM (active)

## CCN1CCN(Cc2nc3ccc(C#N)cc3c(=O)n2-c2ccccc2)CC1
[11]
  IC50: 1.14 µM (active)

## C[C@@H]1CN([C@H](C)CO)C(=O)c2cc(NS(=O)(=O)c3ccc(Cl)cc3)ccc2O[C@@H](C)CCCCO[C@H]1CN(C)C(=O)Nc1ccc(C(F)(F)F)cc1
[12]
  AC50: 2.86 µM (active)
[13]
  AC50: 17.9 µM (active)
[14]
  AC50: 35.2 µM (active)
[15]
  AC50: 29.6 µM (active)

## O=C(CSCc1ccccc1Cl)NNC(=S)Nc1ccccc1
[16]
  IC50: > 122 µM (inactive)
[17]
  AC50: 14.1 µM (inconclusive)
[18]
  AC50: 15.8 µM (inconclusive)

## O=C(C[C@H]1C/C=C\CC[C@@H](Cc2ccc(F)cc2)C(=O)O[C@@H](c2ccccc2)CNC1=O)N[C@H](CO)Cc1ccccc1
[19]
  IC50: > 69.5 µM (inactive)
[20]
  IC50: > 69.5 µM (inactive)

## CS(=O)(=O)Nc1ccc2c(c1)[C@@H]1C[C@H](CC(=O)NCc3ccc(Oc4ccccc4)cc3)O[C@@H](CO)[C@@H]1O2
[12]
  AC50: 6.4 µM (active)
[21]
  AC50: 39.7 µM (active)
[13]
  AC50: 20.7 µM (active)

## Cc1cc(C)c2c(=O)n(CC(=O)Nc3ccc(Cl)cc3)sc2n1
[22]
  EC50: 1.39 µM (active)
[23]
  EC50: > 30 µM (not active)
[24]
  IC50: > 100 µM (inactive)
[25]
  IC50: 20.7 µM (inactive)
[26]
  IC50: 3.35 µM (active)
[27]
  IC50: 9.56 µM (active)
[28]
  IC50: 23.6 µM (inactive)

## CCCNC(=O)C[C@H]1CC[C@@H]2[C@@H](COc3ccc(NC(=O)c4ccc(C(F)(F)F)cc4)cc3C(=O)N2C)O1
[29]
  AC50: 26.9 µM (active)

## CCCNC(=O)c1cc2c(c(-c3cccc(-c4cccc(F)c4)c3)n1)[C@H](CCO)N([S@@+]([O-])C(C)(C)C)C2
[30]
  AbsAC35: 250.06 µM

## O=C(Nc1ccccc1)N1C[C@@H]2[C@H](c3ccccc31)[C@H](CO)N2Cc1cocn1
[31]
  AC50: 9.02 µM (active)
